According to patent US8076329B2, “Histamine H3-receptor ligands and their therapeutic applications” (Bioprojet, priority 2005, dated 2011):
Several values for one entry are separate records, joined by “and”; a condition that tells them apart may be missing. Identical values can stand only once. Like-named read-outs stand apart in the source and are kept apart here.

Experiments:
CYP2D6 = CYP2D6 (Homo sapiens, UniProt P10635); assay: Cytochrome inhibition, fluorometric microtiter plate assay; assay type: in vitro ADME; conditions: human recombinant CYP2D6, substrate AMMC, compounds of the invention
Description: (§1) The ability of drug in human to inhibit the catalytic activity of cytochrome P-450 isoforms was assayed using microtiter plate-based, fluorometric assays for the activities of the five human major CYP forms. Inhibition potential was determined in vitro after incubation of fluorescent model substrates over various incubation time with human recombinant cytochrome isoforms in the absence or in presence of increasing concentrations of test molecules (from 1 nM to 100 μM), in comparison with specific CYP isoform inhibitors.
(§2) Incubation of drug was carried out at 37° C.±0.5° C. under agitation in the presence of human recombinant cytochrome P-450 isoforms and a NADPH generating system. The incubation conditions for each cytochrome isoform were as follows: […]

CYP3A4 = CYP3A4 (Homo sapiens, UniProt P08684); assay: as above; assay type: in vitro ADME; conditions: human recombinant CYP3A4, substrate BFC, compounds of the invention
Description: as §1, §2

[1] = read-out: CYP2D6 cytochrome inhibition (IC50, concentrations in μM for 50% inhibition)
[2] = read-out: CYP3A4 cytochrome inhibition (IC50, concentrations in μM for 50% inhibition)
[3] = CYP2D6 cytochrome inhibition (IC50, concentrations in μM for 50% inhibition)
[4] = CYP3A4 cytochrome inhibition (IC50, concentrations in μM for 50% inhibition)

Sequence of CYP2D6 (P10635 whole entry, canonical isoform): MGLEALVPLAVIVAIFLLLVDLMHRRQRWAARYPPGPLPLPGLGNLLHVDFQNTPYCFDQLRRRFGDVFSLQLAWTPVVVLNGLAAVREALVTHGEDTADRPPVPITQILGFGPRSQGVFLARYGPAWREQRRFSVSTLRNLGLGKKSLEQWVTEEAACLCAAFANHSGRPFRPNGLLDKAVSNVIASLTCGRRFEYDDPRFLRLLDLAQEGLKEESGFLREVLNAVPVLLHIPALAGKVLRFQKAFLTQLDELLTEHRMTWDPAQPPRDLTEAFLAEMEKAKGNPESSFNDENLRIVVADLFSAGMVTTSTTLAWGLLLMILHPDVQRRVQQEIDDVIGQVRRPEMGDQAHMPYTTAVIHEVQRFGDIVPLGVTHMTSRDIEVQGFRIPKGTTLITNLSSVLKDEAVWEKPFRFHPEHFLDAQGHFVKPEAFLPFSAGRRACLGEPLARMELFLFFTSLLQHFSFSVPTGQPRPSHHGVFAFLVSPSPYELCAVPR
Sequence of CYP3A4 (P08684 whole entry): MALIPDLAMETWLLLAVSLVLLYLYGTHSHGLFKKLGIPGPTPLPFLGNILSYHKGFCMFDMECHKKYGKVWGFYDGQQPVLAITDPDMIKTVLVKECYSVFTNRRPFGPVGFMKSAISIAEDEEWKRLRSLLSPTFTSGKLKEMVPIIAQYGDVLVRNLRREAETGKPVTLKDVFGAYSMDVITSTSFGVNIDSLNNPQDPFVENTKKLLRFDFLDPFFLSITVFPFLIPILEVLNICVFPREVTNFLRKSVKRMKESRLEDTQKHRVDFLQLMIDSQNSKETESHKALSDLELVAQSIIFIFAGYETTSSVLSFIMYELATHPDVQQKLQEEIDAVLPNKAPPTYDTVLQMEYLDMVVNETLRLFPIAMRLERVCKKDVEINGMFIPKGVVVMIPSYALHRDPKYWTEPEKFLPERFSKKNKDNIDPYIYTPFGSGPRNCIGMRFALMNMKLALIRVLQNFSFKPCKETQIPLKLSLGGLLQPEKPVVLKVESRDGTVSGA

Molecule | IC50 (CYP2D6; [1]) [µM] | IC50 (CYP3A4; [2]) | IC50 (CYP2D6; [3]) [µM] | IC50 (CYP3A4; [4]) | IC50 (CYP3A4; human, recombinant human CYP3A4, probe BFC, CYP3A4 cytochrome inhibition (IC50, concentrations in μM for 50% inhibition)) [µM]
1-{3-[4-(cis-4-dimethylaminocyclohex-1-yl)phenoxy]propyl}piperidine, dioxalate and 1-{3-[4-(trans-4-dimethylaminocyclohex-1-yl)phenoxy]propyl}-piperidine, dioxalate [Example 18] | > 10 | 43 µM and 50 µM | – | – | –
1-{3-[4-(cis-4-morpholinocyclohex-1-yl)phenoxy]propyl}piperidine, dihydrochloride and 1-{3-[4-(trans-4-morpholinocyclohex-1-yl)phenoxy]-propyl}piperidine, dihydro-chloride [Example 40] | > 100 | 66 µM | – | – | –
CC1CCCN(CCCOc2ccc(C(C)(C)O)cc2)C1 (racemic) [Example 6, (RS)-1-{3-[4-(1-hydroxy-1-methylethyl)phenoxy]propyl}-3-methylpiperidine] | – | – | > 10 | > 10 µM | –
CC1CCCN(CCCOc2ccc(-c3ccccc3)cc2)C1 (racemic) [Example 26, (RS)-1-{3-[(biphenyl-4-yl)oxy]propyl}-3-methylpiperidine] | – | – | 14 | 8 µM | –
C[C@H]1C[C@H](C)CN(CCCOc2ccc(C(=O)N3CCCC3)cc2)C1 (relative stereo) [Example 2, trans-1-{3-[4-(N,N-tetramethylenecarbamoyl)phenoxy]propyl}-3,5-dimethylpiperidine] | – | – | > 10 | > 10 µM | –
C[C@@H]1C[C@@H](C)CN(CCCOc2ccc(C(C)(C)O)cc2)C1 (relative stereo) [Example 5, trans-1-{3-[4-(1-hydroxy-1-methylethyl)phenoxy]propyl}-3,5-dimethylpiperidine] | – | – | > 10 | 67 µM | –
C=C(C)c1ccc(OCCCN2C[C@@H](C)C[C@H](C)C2)cc1 (relative stereo) [Example 10, trans-1-{3-(4-isopropenylphenoxy)propyl]-3,5-dimethylpiperidine] | – | – | 47 | 30 µM | –
C[C@@H]1C[C@@H](C)CN(CCCOc2ccc(Oc3ccccc3)cc2)C1 (relative stereo) [Example 14, trans-1-{3-[4-(phenoxy)phenoxy]propyl}-3,5-dimethylpiperidine] | – | – | > 10 | > 10 µM | –
C[C@@H]1C[C@@H](C)CN(CCCOc2ccc(C3=NCCCC3)cc2)C1 (relative stereo) [Example 16, trans-6-{4-[3-(3,5-dimethylpiperidino)propoxy]phenyl}-2,3,4,5-tetrahydropyridine] | – | – | > 100 | 22 µM | –
C[C@@H]1C[C@@H](C)CN(CCCOc2ccc([C@H]3CC[C@@H](N(C)C)CC3)cc2)C1 (relative stereo) [Example 20, trans-1-{3-[4-(cis-4-dimethylaminocyclohex-1-yl)phenoxy]propyl}-3,5-dimethylpiperidine, dioxalate and trans-1-{3-[4-(trans-4-dimethylaminocyclohex-1-yl)-phenoxy]propyl}-3,5-dimethylpiperidine, dioxalate] | – | – | > 10 | 38 µM and 35 µM | –
C[C@@H]1C[C@@H](C)CN(CCCOc2ccc(-c3ccccc3)cc2)C1 (relative stereo) [Example 22, trans-1-{3-[(biphenyl-4-yl)oxy]propyl}-3,5-dimethylpiperidine] | – | – | 13 | 3 µM | –
Cc1ccc(-c2ccc(OCCCN3C[C@@H](C)C[C@H](C)C3)cc2)cc1 (relative stereo) [Example 27, trans-3,5-dimethyl-1-{3-[(4′-methylbiphenyl-4-yl)oxy]propyl}piperidine] | – | – | > 10 | > 1 µM | –
C[C@@H]1C[C@@H](C)CN(CCCOc2ccc(-c3ccncc3)cc2)C1 (relative stereo) [Example 31, trans-3,5-dimethyl-1-{3-[4-(4-pyridyl)phenoxy]propyl}piperidine] | – | – | 4 | 4 µM | –
C[C@H]1C[C@H](C)CN(CCCOc2ccc(-n3cccc3)cc2)C1 (relative stereo) [Example 33, trans-3,5-dimethyl-1-{3-[4-(pyrrol-1-yl)phenoxy]propyl}piperidine] | – | – | 3 | 7 µM | –
C[C@@H]1C[C@@H](C)CN(CCCOc2ccc(-c3cc[nH]n3)cc2)C1 (relative stereo) [Example 34, trans-3,5-dimethyl-1-{3-[4-(pyrazol-3-yl)phenoxy]propyl}piperidine] | – | – | 20 | – | 10
N#CCc1ccc(OCCCN2CCCCC2)cc1 [Example 4] | – | – | > 10 | > 10 µM | –
C=CCC(O)(CC=C)c1ccc(OCCCN2CCCCC2)cc1 [Example 9, 1-{3-[4-(1-hydroxy-1-allylbut-3-enyl)phenoxy]propyl}piperidine] | – | – | 8 | 3 µM | –
C(=C\c1ccc(OCCCN2CCCCC2)cc1)/c1ccccc1 [Example 11, trans-1-{3-(4-styrylphenoxy)propyl]piperidine] | – | – | 5 | 20 µM | –

Molecule | IC50 (CYP2D6; [1]) [µM] | IC50 (CYP3A4; [2]) | IC50 (CYP2D6; [3]) [µM] | IC50 (CYP3A4; [4]) | IC50 (CYP3A4; human, recombinant human CYP3A4, probe BFC, CYP3A4 cytochrome inhibition (IC50, concentrations in μM for 50% inhibition)) [µM]
C[C@H]1C[C@H](C)CN(CCCOc2ccc([C@H]3CC[C@H](N(C)C)CC3)cc2)C1 [Example 12, (3S,5S)-1-{3-[4-(trans-4-dimethylaminocyclohex-1-yl)phenoxy]propyl}-3,5-dimethylpiperidine] | – | – | > 10 | 28 µM | –
c1ccc(COc2ccc(OCCCN3CCCCC3)cc2)cc1 [Example 13, 1-{3-[4-(benzyloxy)phenoxy]propyl}piperidine] | – | – | 23 | 16 µM | –
c1cc([C@H]2CC[C@H](N3CCCC3)CC2)ccc1OCCCN1CCCCC1 [Example 19, 1-{3-[4-(cis-4-tetramethylenaminocyclohex-1-yl)phenoxy]propyl}piperidine, dioxalate and 1-{3-[4-(trans-4-tetramethylenaminocyclohex-1-yl)phenoxy]propyl}-piperidine, dioxalate] | – | – | > 10 | 42 µM and 48 µM | –
c1ccc(-c2ccc(OCCCN3CCCC3)cc2)cc1 [Example 21, 1-{3-[(biphenyl-4-yl)oxy]propyl}pyrrolidine] | – | – | > 10 | > 10 µM | –
C[C@H]1C[C@H](C)CN(CCCOc2ccc(-c3ccccc3)cc2)C1 [Example 23, (3S,5S)-1-{3-[(biphenyl-4-yl)oxy]propyl}-3,5-dimethylpiperidine] | – | – | 13 | 3 µM | –
COc1ccc(-c2ccc(OCCCN3CCCCC3)cc2)cc1 [Example 25, 1-{3-[(4′-methoxybiphenyl-4-yl)oxy]propyl}piperidine] | – | – | > 10 | > 10 µM | –
c1cc(-c2ccc(OCCCN3CCCCC3)cc2)ccn1 [Example 30] | – | – | 7 | 11 µM | –
c1cc(-c2ccc(OCCCN3CCOCC3)cc2)ccc1OCCCN1CCCCC1 [Example 36, 4-(3-{[4′-(3-piperidinopropoxy)biphenyl-4-yl]oxy}propyl)morpholine] | – | – | > 10 | 3 µM | –
c1cc(-c2ccc(OCCCN3CCCC3)cc2)ccc1OCCCN1CCCC1 [Example 38, di-1,1′-{(biphenyl-4,4′-diyl)bis[oxy(propan-1,3-diyl)]}pyrrolidine] | – | – | > 10 | 30 µM | –
C[C@H]1CCCN(CCCOc2ccc(-c3ccncc3)cc2)C1 [Example 39, (3S)-3-methyl-1-{3-[4-(4-pyridyl)phenoxy]propyl}piperidine] | – | – | 6 | 11 µM | –
C(=C\c1ccc(-c2ccc(OCCCN3CCCCC3)cc2)cc1)/CN1CCCCC1 [Example 44, (E)-1-(3-{[4′-(3-piperidinoprop-1-en-1-yl)biphenyl-4-yl]oxy}propyl)piperidine] | – | – | > 10 | > 1 µM | –
C(=C/c1ccc(-c2ccc(OCCCN3CCCCC3)cc2)cc1)/CN1CCCCC1 [Example 45, (Z)-1-(3-{[4′-(3-piperidinoprop-1-en-1-yl)biphenyl-4-yl]oxy}propyl)piperidine] | – | – | 79 | 5 µM | –
CN1CCN(c2ccc(-c3ccc(OCCCN4CCCCC4)cc3)cc2)CC1 [Example 46, 1-methyl-4-[4′-(3-piperidinopropoxy)biphenyl]piperazine] | – | – | > 100 | 12 µM | –
CN(C)[C@H]1CC[C@@H](Cc2ccc(OCCCN3CCCCC3)cc2)CC1 [Example 47, 1-{3-[4-(cis-4-dimethylaminocyclohex-1-yl)methylphenoxy]propyl}piperidine] | – | – | 107 | 37 µM | –
c1cc(-c2ccc(OCCCN3CCCCC3)cc2)ccc1CCCN1CCCCC1 [Example 48] | – | – | 2 | 2 µM | –
C[C@H]1C[C@H](C)CN(CCCOc2ccc([C@H]3CC[C@H](N)CC3)cc2)C1 [Example 49, (3S,5S)-1-{3-[4-(trans-4-aminocyclohex-1-yl)phenoxy]propyl}-3,5-dimethylpiperidine] | – | – | > 10 | 27 µM | –
C[C@H]1CCCN(CCCOc2ccc(-c3cc[n+]([O-])cc3)cc2)C1 [Example 51, (3S)-4-{4-[3-(3-methylpiperidin-1-yl)propoxy]phenyl}pyridine 1-oxide] | – | – | > 100 | 72 µM | –
[O-][n+]1ccc(-c2ccc(OCCCN3CCCCC3)cc2)cc1 [Example 53, 4-[4-(3-piperidinopropoxy)phenyl]pyridine 1-oxide] | – | – | 64 | 57 µM | –
